Source: US20180353524A1, “CANCER TREATMENT USING 2-DEOXY-2-FLUORO-L-FUCOSE IN COMBINATION WITH A CHECKPOINT INHIBITOR” (SEATTLE GENETICS, INC., priority 2015, published 2018)

Tested on: CMV reactive human PMBCs
Test: In vitro 2FF and anti-PD1 antibody combination in human PBMCs (IFNγ, IL12p70)
Conditions: 1 μg/mL anti-PD1 (Pembrolizumab) added to co-culture of 2FF matured T-cells, DCs and CMV antigen
Description: CMV reactive human PMBCs from a CMV positive donor (Astarte™ Biologics) were thawed, plated into a 6-well plate and cultured overnight in DC media (30% DMEM 70% X-vivo+2 mM glutamax+10% ATB serum+1% PS). The following day the supernatant was collected to isolate T-cells and the adhering cells were washed in media and then replenished with 2 mL media supplemented with IL4 (100 ng/μL) and GMCSF (200 ng/μL) per well to differentiate and proliferate the adhering monocytes into DCs. The plate was incubated for 4-5 days and then cells were moved into a T25 flask. Each time the cells were passaged (every 2-3 days) new cytokines were given. The T-cells in the supernatant were isolated using StemSep human T-cell enrichment kit (Stemcell technologies). The T-cells were then resuspended in T-cell media (RPMI+10% Fetal calf serum, 1% PS) and spilt into two T25 flasks (with or without 100-200 μM 2FF). CD3CD28 antibody coated beads (Miltenyi Biotec) (20 μL/flask) were added to activate the T-cells. After 24 h IL2 was added (100 ng/μL). Each time the cells were passaged new IL2 and 2FF were added. […]
IFNγ and IL12p70 in the supernatants from 5 day co-cultures were measured using a Lumenix assay and the concentration of each cytokine was calculated using an internal standard curve.

Substance: Pembrolizumab [anti-PD1, reference compound]
- antigen specific response (IFNγ, IL12p70) of 2FF matured T-cells on addition of anti-PD1: further enhances the antigen specific response
